Assay [1] has as its target T1, Amyloid-beta(1-42) oligomer binding to purified human brain membranes (Homo sapiens, UniProt P05067).
T1 construct: Beta-amyloid (1-42) was purchased from rPeptide (Cat. No. A1163); purchased rPeptide A1163
Nature of the assay: Inhibition of Amyloid-beta(1-42) oligomer binding to purified human brain cell membranes (ELISA). To be noted: Abeta(1-42) oligomers, read-out: Abeta42/Membrane Activity (IC-50). Here is the method: (§1) Purified human brain cell membranes were prepared by differential centrifugation as follows. Five grams of frozen human brain postmortem tissue (obtained from University of Kentucky Alzheimer's Disease Center Tissue Bank) was homogenized in 50 ml HEPES-Buffered sucrose (0.32M sucrose, 4 mM HEPES pH7.4, protease inhibitors) with a motor driven glass-teflon homogenizer. After removing nuclear and cell debris by centrifugation of homogenates at 1,000×g for 10 min at 4 degree Celsius, post-nuclear supernatant was centrifuged at 100,000×g for 30 minutes to yield the crude membrane pellet. Crude membrane pellet was re-suspended in 0.32M sucrose, then centrifuged again at 100,000×g for 30 minutes to yield washed membrane pellet. Membrane pellet was resuspended in sterile PBS (pH7.4), quickly frozen, and kept in aliquots at −80 degrees Celsius. This preparation contains human brain cell membranes. Protein concentration was measured with BCA protein assay kit (Pierce Cat. No. 23227). Purified brain membranes were diluted to 0.01 mg/ml in PBS (pH 7.4) and then added to a 96 well polystyrene ELISA plate (NUNC Cat. No. 449824; 100 μl per well). Plates were incubated Over Night (ON) at 4 degrees Celsius. Following the incubation, the plate was washed consecutively, by immersion, with de-ionized water and PBS (pH 7.4). The ELISA plate was then blocked with nonfat milk (2%, 200 μl per well) for 2 hours at Room Temperature (RT). Following blocking, the plate was washed with de-ionized water then PBS (pH 7.4). GBAPs were dissolved and diluted in PBS (pH 6.5, supplemented with 0.1% BSA) at desired concentrations, added to the ELISA plates coated with brain membranes (100 μl per well) and incubated for 2 hours at RT with gentle shaking. Following incubation, the plate was washed with de-ionized water and three times with PBS (pH 6.5) plus Tween. Bound GBAP was detected by a monoclonal antibody specific for that GBAP, followed by incubation with secondary antibody conjugated to horseradish peroxidase (HRP). Antibody was diluted in PBS (pH6.5 supplemented with 1% BSA). Following each incubation with antibody, the plate was washed with de-ionized water and three times with PBS (pH6.5) wash buffer containing 0.1% Tween. The peroxidase substrate chromogen, TMB (Dako Cat. No. S1599) was added (100 μl per well) to the ELISA plate and incubated at room temperature. After 5 minutes ELISA Stop Solution (hydrochloric acid 1N, sulfuric acid 3N) was added (100 μl per well) to stop the peroxidase catalyzed colorimetric reaction. The Optical Density of the samples was measured at 450 nm using an ELISA plate reader (BioTek Synergy H1). Following color development, the % inhibition compared to control was determined. IC-50s were calculated using GraphPad Prism software.
(§2) The assay was performed as described in Example 49, with the following modifications. Following to coating the plates with purified human brain cell membranes, plates were washed as described. The compounds were dissolved in DMSO at 10 mM final concentration and further diluted prior to assay. DMSO concentration in the screening well was up to 2%. Individual compounds were co-incubated with Beta-amyloid peptides on plates coated with purified human brain membranes. Beta-amyloid (1-42) oligomers were prepared as described in Example 2. Beta-amyloid (1-40) from rPeptide (Cat No. A1153) was dissolved in DMSO, quickly frozen and kept in aliquots at −80 degrees Celsius. Beta-amyloid (1-42) oligomers or Beta-amyloid (1-40) dissolved in PBS (pH 6.5, supplemented with BSA, 0.1%) were added to the ELISA plate (100 μl per well) and incubated for 2 hours at RT with gentle shaking. Following the incubation, the plate was washed with de-ionized water and three times with PBS (pH 6.5) plus Tween. […]
In general terms: An ELISA detects its analyte on a solid surface through an enzyme-linked reagent.

Assay [2] addresses T2, Amyloid-beta(1-40) binding to purified human brain membranes (Homo sapiens, UniProt P05067).
T2 construct: Beta-amyloid (1-40) from rPeptide (Cat No. A1153) was dissolved in DMSO; purchased rPeptide A1153
Nature of the assay: Inhibition of Amyloid-beta(1-40) binding to purified human brain cell membranes (ELISA). The settings on record: Abeta(1-40), read-out: Abeta40/Membrane Activity (IC-50). Here is the method: as §1, §2

Among the data in patent US20240398783A1, “Compounds and Pharmaceutical Compositions Comprising Inhibitors of Amyloid Peptide Interactions with Glycosaminoglycans, Methods of Treatment and Use Thereof” (Gismo Therapeutics, Inc., priority 2021, published 2024) are IC50 values, retold here.

SMILES strings stand for the structures. Counter-ions that a name gives are not always drawn.

T2 sequence (P05067 672-711): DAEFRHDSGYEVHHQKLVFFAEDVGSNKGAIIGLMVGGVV
T1 sequence (P05067 672-713): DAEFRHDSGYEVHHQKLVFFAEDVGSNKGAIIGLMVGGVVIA

Take `Cc1cc(-n2ccnc2)ccc1/C=N/Nc1ccnc2cc(Cl)ccc12` [Compound 1, (E)-4-((E)-(4-(1H-imidazol-1-yl)-2-methylbenzylidene)hydrazono)-7-chloro-1,4-dihydroquinoline]: the IC50 in assay [1] came to 2.97 µM. On the same count and under the same terms, with `Clc1ccc2c(N/N=C/c3ccc(-n4cccn4)cc3)ccnc2c1` [Compound 3, (E)-4-((E)-(4-(1H-pyrazol-1-yl)benzylidene)hydrazono)-7-chloro-1,4-dihydroquinoline] the figure was 11.5 µM. For `Clc1ccc2c(N/N=C/c3ccc(-n4ccnc4)nc3)ccnc2c1` [Compound 14, (E)-4-(2-((6-(1H-imidazol-1-yl)pyridin-3-yl)methylene)hydrazineyl)-7-chloroquinoline hydrochloride], the figures for the IC50 in assay [1] and in assay [2] were 6.03 µM and 18.4 µM, respectively. Regarding `Cc1ncn(-c2ccc(/C=N\Nc3ncnc4cc(Cl)ccc34)cn2)c1C` [Compound 15, 7-chloro-4-(2-((6-(4,5-dimethyl-1H-imidazol-1-yl)pyridin-3-yl)methylene)hydrazineyl)quinazoline hydrochloride], the IC50 in assay [1] came out at 7.05 µM. Take `C/C(=N\Nc1ncnc2cc(Cl)ccc12)c1ccc(-n2cnc(C)c2C)nc1` [Compound 16, 7-chloro-4-(2-(1-(6-(4,5-dimethyl-1H-imidazol-1-yl)pyridin-3-yl)ethylidene)hydrazineyl)quinazoline phosphate]: the IC50 in assay [1] came to 3.29 µM; in assay [2] it was 2.88 µM. On to `C/C(=N\Nc1ncnc2cc(Cl)ccc12)c1ccc(-n2cc[n+](C)c2)nc1` [Compound 17, (E)-1-(5-(1-(2-(7-chloroquinazolin-4-yl)hydrazineylidene)ethyl)pyridin-2-yl)-3-methyl-1H-imidazol-3-ium iodide phosphoric acid salt], for which, in assay [2], the IC50 was 27.9 µM. As for `C/C(=N\Nc1ncnc2cc(Cl)ccc12)c1ccc(-n2cc(C)nc2C)nc1` [Compound 18, (E)-7-chloro-4-(2-(1-(6-(2,4-dimethyl-1H-imidazol-1-yl)pyridin-3-yl)ethylidene)hydrazineyl)quinazoline phosphoric acid salt], the IC50 in assay [2] amounted to 17.3 µM.

`C/C(=N\Nc1ncnc2ccccc12)c1ccc(-n2cc(C)nc2C)nc1` [Compound 19, (E)-4-(2-(1-(6-(2,4-dimethyl-1H-imidazol-1-yl)pyridin-3-yl)ethylidene)hydrazineyl)quinazoline]: the IC50 in assay [2] worked out at 3.09 µM.

For `C/C(=N\Nc1ncnc2cc(F)ccc12)c1ccc(-n2cnc(C)c2C)nc1` [Compound 21, (E)-4-(2-(1-(6-(4,5-dimethyl-1H-imidazol-1-yl)pyridin-3-yl)ethylidene)hydrazineyl)-7-fluoroquinazoline], the IC50 in assay [1] was found to be 3.3 µM; in assay [2] it was 5.95 µM. Regarding `CC(=NNc1ccnc2cc(Cl)ccc12)c1ccc(-n2cnc(C)c2C)nc1` [Compound 22, 7-chloro-4-(2-(1-(6-(4,5-dimethyl-1H-imidazol-1-yl)pyridin-3-yl)ethylidene)hydrazineyl)quinoline], the IC50 amounted to 3.56 µM in assay [1] and 1.78 µM in assay [2].

For `C/C(=N\Nc1nncc2cc(Cl)ccc12)c1ccc(-n2cc(C)nc2C)nc1` [Compound 24, (E)-6-chloro-1-(2-(1-(6-(2,4-dimethyl-1H-imidazol-1-yl)pyridin-3-yl)ethylidene)hydrazineyl)phthalazine], the figures for the IC50 in assay [1] and in assay [2] were 6.67 µM and 24.5 µM, respectively. The matching figures for `Cc1ncn(-c2ccc(Nc3ncnc4cc(Cl)ccc34)cn2)c1C` [Compound 25, 7-chloro-N-(6-(4,5-dimethyl-1H-imidazol-1-yl)pyridin-3-yl)quinazolin-4-amine]: 7.01 µM and 4.68 µM. For the compound `C/C(=N\Nc1ncnc2cc(F)ccc12)c1ccc(-n2cc[n+](C)c2)nc1` [Compound 26, (E)-1-(5-(1-(2-(7-fluoroquinazolin-4-yl)hydrazineylidene)ethyl)pyridin-2-yl)-3-methyl-1H-imidazol-3-ium phosphoric acid salt], in assay [2], the IC50 was 1.51 µM.

Regarding `C/C(=N\Nc1ncnc2cc(Cl)ccc12)c1ccc(-n2cc(C)nc2C)nc1` [Compound 27, (E)-7-chloro-4-(2-(1-(6-(2,4-dimethyl-1H-imidazol-1-yl)pyridin-3-yl)ethylidene)hydrazineyl)quinazoline hydrochloride], the IC50 in assay [1] came out at 3.97 µM; in assay [2], 2.23 µM. With `CC(=NNc1ncnc2cc(Cl)ccc12)c1ccnc(-n2cnc(C)c2C)c1` [Compound 28, 7-chloro-4-(2-(1-(2-(4,5-dimethyl-1H-imidazol-1-yl)pyridin-4-yl)ethylidene)hydrazineyl)quinazoline], the IC50 in assay [2] is 3.71 µM. Consider `Clc1ccc2c(Nc3ccc(-n4cncn4)nc3)ncnc2c1` [Compound 34, N-(6-(1H-1,2,4-triazol-1-yl)pyridin-3-yl)-7-chloroquinazolin-4-amine phosphoric acid salt], for which, in assay [1], the IC50 came to 10.4 µM.

Regarding `Fc1cc(/C=N/Nc2ccnc3cc(Cl)ccc23)ccc1-n1ccnc1` [Compound 35, (E)-7-chloro-4-(2-(3-fluoro-4-(1H-imidazol-1-yl)benzylidene)hydrazineyl)quinoline hydrochloride], the IC50 was 10.4 µM in assay [1] and 41.5 µM in assay [2].

As for `CC(=NNc1ccnc2cc(Cl)ccc12)c1ccc(-n2ccnc2)cc1` [Compound 36, 4-(2-(1-(4-(1H-imidazol-1-yl)phenyl)ethylidene)hydrazineyl)-7-chloroquinoline phosphate], in assay [1], the IC50 was 18.7 µM. Turning to `Clc1ccc2c(N/N=C/c3ccc(-n4ccnc4)cc3)ccnc2c1` [Compound 38, 4-(2-(4-(1H-imidazol-1-yl)benzylidene)hydrazineyl)-7-chloroquinoline dihydrochloride], the IC50 is 4.62 µM in assay [1] and 0.36 µM in assay [2]. As to `CCN1CCN(c2ccc(Nc3ccnc4cc5ccccc5cc34)cc2)CC1` [Compound 39, N-(4-(4-ethylpiperazin-1-yl)phenyl)benzo[g]quinolin-4-amine], in assay [2], the IC50 was found to be 1.46 µM. With `Cc1ncn(-c2ncc(Nc3ncnc4cc(Cl)ccc34)cc2O)c1C` [Compound 40, 5-((7-chloroquinazolin-4-yl)amino)-2-(4,5-dimethyl-1H-imidazol-1-yl)pyridin-3-ol phosphoric acid salt], in assay [1], the IC50 turned out to be 4.36 µM. As to `Clc1ccc2c(Nc3ccc(-n4ccnc4)nc3)ncnc2c1` [Compound 41, N-(6-(1H-imidazol-1-yl)pyridin-3-yl)-7-chloroquinazolin-4-amine], in assay [2], the IC50 worked out at 18.7 µM. For the compound `CCN(CC)Cc1cccc(Nc2ccnc3cc(Cl)ccc23)c1` [Compound 42, 7-chloro-N-(3-((diethylamino)methyl)phenyl)quinolin-4-amine], the IC50 in assay [2] worked out at 6.56 µM.

On to `Clc1ccc2c(Nc3ccc(-n4cncn4)nc3)ccnc2c1` [Compound 44, N-(6-(1H-1,2,4-triazol-1-yl)pyridin-3-yl)-7-chloroquinolin-4-amine], for which, in assay [2], the IC50 is 43 µM.
